Results: ChEMBL document CHEMBL6115013, “Design, synthesis, and biological evaluation of novel azaspirooxindolinone derivatives as potent inhibitors of ITK and BTK-dependent cancers” (Bioorg Med Chem, 2025)

System: A549
Experiment: Cytotoxicity against ITK/BTK null human A549 cells assessed as inhibition of cell growth by MTS assay

Row | Compound | IC50 [µM]
1 | N#CC1(C(=O)N2CCC3(CC2)C(=O)Nc2ncc(-c4ccc5c(c4)OCO5)cc23)CC1 | > 50
2 | O=C(O)C1(C(=O)N2CCC3(CC2)C(=O)Nc2ncc(-c4ccc5c(c4)OCO5)cc23)CC1 | > 50
3 | C=CC(=O)N1CCC2(CC1)C(=O)Nc1ncc(-c3ccc4c(c3)OCO4)cc12 | > 50
4 | O=C1Nc2ncc(-c3ccc4c(c3)OCO4)cc2C12CCN(C(=O)C1(C(F)(F)F)CC1)CC2 | > 50
5 | CC(C)(C#N)C(=O)N1CCC2(CC1)C(=O)Nc1ncc(-c3ccc4c(c3)OCO4)cc12 | > 50
6 | CC(C)(O)C(=O)N1CCC2(CC1)C(=O)Nc1ncc(-c3ccc4c(c3)OCO4)cc12 | > 50
7 | CCOC(=O)C(C)(C)C(=O)N1CCC2(CC1)C(=O)Nc1ncc(-c3ccc4c(c3)OCO4)cc12 | > 50
8 | C=C(F)C(=O)N1CCC2(CC1)C(=O)Nc1ncc(-c3ccc4c(c3)OCO4)cc12 | > 50

System: HCT-116
Experiment: Cytotoxicity against ITK/BTK null human HCT-116 cells assessed as inhibition of cell growth by MTS assay

Row | Compound | IC50 [µM]
9 | N#CC1(C(=O)N2CCC3(CC2)C(=O)Nc2ncc(-c4ccc5c(c4)OCO5)cc23)CC1 | > 50
10 | O=C(O)C1(C(=O)N2CCC3(CC2)C(=O)Nc2ncc(-c4ccc5c(c4)OCO5)cc23)CC1 | > 50
11 | C=CC(=O)N1CCC2(CC1)C(=O)Nc1ncc(-c3ccc4c(c3)OCO4)cc12 | > 50
12 | O=C1Nc2ncc(-c3ccc4c(c3)OCO4)cc2C12CCN(C(=O)C1(C(F)(F)F)CC1)CC2 | > 50
13 | CC(C)(C#N)C(=O)N1CCC2(CC1)C(=O)Nc1ncc(-c3ccc4c(c3)OCO4)cc12 | > 50
14 | CC(C)(O)C(=O)N1CCC2(CC1)C(=O)Nc1ncc(-c3ccc4c(c3)OCO4)cc12 | > 50
15 | CCOC(=O)C(C)(C)C(=O)N1CCC2(CC1)C(=O)Nc1ncc(-c3ccc4c(c3)OCO4)cc12 | > 50
16 | C=C(F)C(=O)N1CCC2(CC1)C(=O)Nc1ncc(-c3ccc4c(c3)OCO4)cc12 | > 50

System: U2OS
Experiment: Cytotoxicity against ITK/BTK null human U2OS cells assessed as inhibition of cell growth by MTS assay

Row | Compound | IC50 [µM]
17 | N#CC1(C(=O)N2CCC3(CC2)C(=O)Nc2ncc(-c4ccc5c(c4)OCO5)cc23)CC1 | > 50
18 | O=C(O)C1(C(=O)N2CCC3(CC2)C(=O)Nc2ncc(-c4ccc5c(c4)OCO5)cc23)CC1 | > 50
19 | C=CC(=O)N1CCC2(CC1)C(=O)Nc1ncc(-c3ccc4c(c3)OCO4)cc12 | > 50
20 | O=C1Nc2ncc(-c3ccc4c(c3)OCO4)cc2C12CCN(C(=O)C1(C(F)(F)F)CC1)CC2 | > 50
21 | CC(C)(C#N)C(=O)N1CCC2(CC1)C(=O)Nc1ncc(-c3ccc4c(c3)OCO4)cc12 | > 50
22 | CC(C)(O)C(=O)N1CCC2(CC1)C(=O)Nc1ncc(-c3ccc4c(c3)OCO4)cc12 | > 50
23 | CCOC(=O)C(C)(C)C(=O)N1CCC2(CC1)C(=O)Nc1ncc(-c3ccc4c(c3)OCO4)cc12 | > 50
24 | C=C(F)C(=O)N1CCC2(CC1)C(=O)Nc1ncc(-c3ccc4c(c3)OCO4)cc12 | 18.9

System: Jurkat
Experiment: Cytotoxicity against ITK positive human Jurkat cells assessed as inhibition of cell growth by MTS assay

Row | Compound | IC50 [µM]
25 | N#CC1(C(=O)N2CCC3(CC2)C(=O)Nc2ncc(-c4ccc5c(c4)OCO5)cc23)CC1 | 50
26 | O=C(O)C1(C(=O)N2CCC3(CC2)C(=O)Nc2ncc(-c4ccc5c(c4)OCO5)cc23)CC1 | > 50
27 | C=CC(=O)N1CCC2(CC1)C(=O)Nc1ncc(-c3ccc4c(c3)OCO4)cc12 | > 50
28 | O=C1Nc2ncc(-c3ccc4c(c3)OCO4)cc2C12CCN(C(=O)C1(C(F)(F)F)CC1)CC2 | 29.4
29 | CC(C)(C#N)C(=O)N1CCC2(CC1)C(=O)Nc1ncc(-c3ccc4c(c3)OCO4)cc12 | 9.36
30 | CC(C)(O)C(=O)N1CCC2(CC1)C(=O)Nc1ncc(-c3ccc4c(c3)OCO4)cc12 | > 50
31 | CCOC(=O)C(C)(C)C(=O)N1CCC2(CC1)C(=O)Nc1ncc(-c3ccc4c(c3)OCO4)cc12 | 29.2
32 | C=C(F)C(=O)N1CCC2(CC1)C(=O)Nc1ncc(-c3ccc4c(c3)OCO4)cc12 | 4.16

System: CCRF-CEM
Experiment: Cytotoxicity against ITK positive human CCRF-CEM cells assessed as inhibition of cell growth by MTS assay

Row | Compound | IC50 [µM]
33 | N#CC1(C(=O)N2CCC3(CC2)C(=O)Nc2ncc(-c4ccc5c(c4)OCO5)cc23)CC1 | > 50
34 | O=C(O)C1(C(=O)N2CCC3(CC2)C(=O)Nc2ncc(-c4ccc5c(c4)OCO5)cc23)CC1 | > 50
35 | C=CC(=O)N1CCC2(CC1)C(=O)Nc1ncc(-c3ccc4c(c3)OCO4)cc12 | 13.5
36 | O=C1Nc2ncc(-c3ccc4c(c3)OCO4)cc2C12CCN(C(=O)C1(C(F)(F)F)CC1)CC2 | 19.5
37 | CC(C)(C#N)C(=O)N1CCC2(CC1)C(=O)Nc1ncc(-c3ccc4c(c3)OCO4)cc12 | 14.3
38 | CC(C)(O)C(=O)N1CCC2(CC1)C(=O)Nc1ncc(-c3ccc4c(c3)OCO4)cc12 | > 50
39 | CCOC(=O)C(C)(C)C(=O)N1CCC2(CC1)C(=O)Nc1ncc(-c3ccc4c(c3)OCO4)cc12 | > 50
40 | C=C(F)C(=O)N1CCC2(CC1)C(=O)Nc1ncc(-c3ccc4c(c3)OCO4)cc12 | 14.1

System: Ramos
Experiment: Cytotoxicity against BTK positive human Ramos cells assessed as inhibition of cell growth by MTS assay

Row | Compound | IC50 [µM]
41 | N#CC1(C(=O)N2CCC3(CC2)C(=O)Nc2ncc(-c4ccc5c(c4)OCO5)cc23)CC1 | 1.42
42 | O=C(O)C1(C(=O)N2CCC3(CC2)C(=O)Nc2ncc(-c4ccc5c(c4)OCO5)cc23)CC1 | > 50
43 | C=CC(=O)N1CCC2(CC1)C(=O)Nc1ncc(-c3ccc4c(c3)OCO4)cc12 | > 50
44 | O=C1Nc2ncc(-c3ccc4c(c3)OCO4)cc2C12CCN(C(=O)C1(C(F)(F)F)CC1)CC2 | 1.82
45 | CC(C)(C#N)C(=O)N1CCC2(CC1)C(=O)Nc1ncc(-c3ccc4c(c3)OCO4)cc12 | 10.1
46 | CC(C)(O)C(=O)N1CCC2(CC1)C(=O)Nc1ncc(-c3ccc4c(c3)OCO4)cc12 | > 50
47 | CCOC(=O)C(C)(C)C(=O)N1CCC2(CC1)C(=O)Nc1ncc(-c3ccc4c(c3)OCO4)cc12 | > 50
48 | C=C(F)C(=O)N1CCC2(CC1)C(=O)Nc1ncc(-c3ccc4c(c3)OCO4)cc12 | 1.38

System: K562
Experiment: Cytotoxicity against BTK positive human K562 cells assessed as inhibition of cell growth by MTS assay

Row | Compound | IC50 [µM]
49 | N#CC1(C(=O)N2CCC3(CC2)C(=O)Nc2ncc(-c4ccc5c(c4)OCO5)cc23)CC1 | > 50
50 | O=C(O)C1(C(=O)N2CCC3(CC2)C(=O)Nc2ncc(-c4ccc5c(c4)OCO5)cc23)CC1 | > 50
51 | C=CC(=O)N1CCC2(CC1)C(=O)Nc1ncc(-c3ccc4c(c3)OCO4)cc12 | > 50
52 | O=C1Nc2ncc(-c3ccc4c(c3)OCO4)cc2C12CCN(C(=O)C1(C(F)(F)F)CC1)CC2 | > 50
53 | CC(C)(C#N)C(=O)N1CCC2(CC1)C(=O)Nc1ncc(-c3ccc4c(c3)OCO4)cc12 | > 50
54 | CC(C)(O)C(=O)N1CCC2(CC1)C(=O)Nc1ncc(-c3ccc4c(c3)OCO4)cc12 | > 50
55 | CCOC(=O)C(C)(C)C(=O)N1CCC2(CC1)C(=O)Nc1ncc(-c3ccc4c(c3)OCO4)cc12 | > 50
56 | C=C(F)C(=O)N1CCC2(CC1)C(=O)Nc1ncc(-c3ccc4c(c3)OCO4)cc12 | > 50

System: not listed separately
Experiment: Cytotoxicity against ITK/BTK null human MRC5 cells assessed as inhibition of cell growth by MTS assay
Assay type: toxicity, cell-based

Row | Compound | IC50 [µM]
57 | N#CC1(C(=O)N2CCC3(CC2)C(=O)Nc2ncc(-c4ccc5c(c4)OCO5)cc23)CC1 | > 50
58 | O=C(O)C1(C(=O)N2CCC3(CC2)C(=O)Nc2ncc(-c4ccc5c(c4)OCO5)cc23)CC1 | > 50
59 | C=CC(=O)N1CCC2(CC1)C(=O)Nc1ncc(-c3ccc4c(c3)OCO4)cc12 | > 50
60 | O=C1Nc2ncc(-c3ccc4c(c3)OCO4)cc2C12CCN(C(=O)C1(C(F)(F)F)CC1)CC2 | > 50
61 | CC(C)(C#N)C(=O)N1CCC2(CC1)C(=O)Nc1ncc(-c3ccc4c(c3)OCO4)cc12 | > 50
62 | CC(C)(O)C(=O)N1CCC2(CC1)C(=O)Nc1ncc(-c3ccc4c(c3)OCO4)cc12 | > 50
63 | CCOC(=O)C(C)(C)C(=O)N1CCC2(CC1)C(=O)Nc1ncc(-c3ccc4c(c3)OCO4)cc12 | > 50
64 | C=C(F)C(=O)N1CCC2(CC1)C(=O)Nc1ncc(-c3ccc4c(c3)OCO4)cc12 | > 50
65 | C=CC(=O)N1CCC[C@@H](n2nc(-c3ccc(Oc4ccccc4)cc3)c3c(N)ncnc32)C1 [IBRUTINIB] | 27.9

System: not listed separately
Experiment: Cytotoxicity against ITK/BTK null human BJ cells assessed as inhibition of cell growth by MTS assay
Assay type: toxicity, cell-based

Row | Compound | IC50 [µM]
66 | N#CC1(C(=O)N2CCC3(CC2)C(=O)Nc2ncc(-c4ccc5c(c4)OCO5)cc23)CC1 | > 50
67 | O=C(O)C1(C(=O)N2CCC3(CC2)C(=O)Nc2ncc(-c4ccc5c(c4)OCO5)cc23)CC1 | > 50
68 | C=CC(=O)N1CCC2(CC1)C(=O)Nc1ncc(-c3ccc4c(c3)OCO4)cc12 | > 50
69 | O=C1Nc2ncc(-c3ccc4c(c3)OCO4)cc2C12CCN(C(=O)C1(C(F)(F)F)CC1)CC2 | > 50
70 | CC(C)(C#N)C(=O)N1CCC2(CC1)C(=O)Nc1ncc(-c3ccc4c(c3)OCO4)cc12 | > 50
71 | CC(C)(O)C(=O)N1CCC2(CC1)C(=O)Nc1ncc(-c3ccc4c(c3)OCO4)cc12 | > 50
72 | CCOC(=O)C(C)(C)C(=O)N1CCC2(CC1)C(=O)Nc1ncc(-c3ccc4c(c3)OCO4)cc12 | > 50
73 | C=C(F)C(=O)N1CCC2(CC1)C(=O)Nc1ncc(-c3ccc4c(c3)OCO4)cc12 | > 50
74 | C=CC(=O)N1CCC[C@@H](n2nc(-c3ccc(Oc4ccccc4)cc3)c3c(N)ncnc32)C1 [IBRUTINIB] | 28.9

Target: T1, Tyrosine-protein kinase ITK/TSK (Homo sapiens, UniProt Q08881)
T1 sequence (Q08881 whole entry): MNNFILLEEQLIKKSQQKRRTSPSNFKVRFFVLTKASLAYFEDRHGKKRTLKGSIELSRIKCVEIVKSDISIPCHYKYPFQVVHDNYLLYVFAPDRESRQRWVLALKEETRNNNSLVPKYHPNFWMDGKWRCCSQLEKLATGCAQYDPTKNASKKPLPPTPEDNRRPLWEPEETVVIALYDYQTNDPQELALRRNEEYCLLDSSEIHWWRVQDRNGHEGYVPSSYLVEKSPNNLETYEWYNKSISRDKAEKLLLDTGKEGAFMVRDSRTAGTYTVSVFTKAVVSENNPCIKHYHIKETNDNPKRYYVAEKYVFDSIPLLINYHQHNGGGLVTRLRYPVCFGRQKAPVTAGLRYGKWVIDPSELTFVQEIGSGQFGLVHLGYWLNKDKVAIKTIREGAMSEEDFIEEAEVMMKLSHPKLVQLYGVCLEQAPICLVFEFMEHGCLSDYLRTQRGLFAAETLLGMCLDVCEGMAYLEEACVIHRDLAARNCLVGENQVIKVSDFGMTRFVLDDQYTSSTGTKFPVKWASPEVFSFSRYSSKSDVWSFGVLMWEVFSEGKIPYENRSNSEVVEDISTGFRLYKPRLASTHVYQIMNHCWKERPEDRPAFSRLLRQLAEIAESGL
Experiment: Inhibition of human ITK using poly (Glu:Tyr) as substrate in presence of ATP by ADP-glo kinase assay

Row | Compound | IC50 [µM]
75 | C=C(F)C(=O)N1CCC2(CC1)C(=O)Nc1ncc(-c3ccc4c(c3)OCO4)cc12 | > 10
